From patent publication US7342030B2, “Indole derivatives” (Hoffmann-La Roche Inc., priority 2004, dated 2008)

The compounds below were run on HEK293 cells (assay: Viability Assay of HEK293 Cells (CellTiter-Glo Luminescent Cell Viability Assay)). Conditions: Homo sapiens, 7 days (168 h) incubation, compounds 3 μM to 0.00015 μM, ATP luminescence.
Format: cell-based
Description: Viability Assay of HEK293 Cells
A viability assay was performed using the CellTiter-Glo® Luminescent Cell Viability Assay (see Promega Corporation's Technical Bulletin No. 288, pp. 1-11 [revised 2/04] which is hereby incorporated by reference in its entirety). This assay is a homogeneous method of determining the number of viable cells in culture based on quantitation of the ATP present, an indicator of metabolically active cells. The assay is designed for use with multiwell formats, making it ideal for automated high-throughput screening (HTS), cell proliferation and cytotoxicity assays. The homogeneous assay procedure involves adding a single reagent (containing luciferase, luciferan substrate, and buffer) directly to cells cultured in serum-supplemented medium. Cell washing, removal of medium and multiple pipetting steps are not required. The system detects as few as 15 cells/well in a 384-well format in 10 minutes after adding reagent and mixing.
The homogeneous “add-mix-measure” format results in cell lysis and generation of a luminescent signal proportional to the amount of ATP present. The amount of ATP is directly proportional to the number of cells present in culture. The above-referenced assay generates a “glow-type” luminescent signal, produced by the luciferase reaction, which has a half-life generally greater than five hours, depending on cell type and medium used. The extended half-life eliminates the need to use reagent injectors and provides flexibility for continuous or batch mode processing of multiple plates. The unique homogeneous format avoids errors that may be introduced by other ATP measurement methods that require multiple steps.
HEK293 cells (human embryonic kidney cell line transformed by Adenovirus 5 fragments, ATCC-No. CRL 1573) were cultivated in Dulbecco's Modified Eagle Medium (D-MEM) (1×) liquid (high glucose) (which includes L-Alanyl-L-Glutamine [a stabilized a form of L-Glutamine], 4500 mg/L glucose, and 110 mg/L sodium pyruvate) from Invitrogen Coropration (Invitrogen Catalog Number 31966-021 [now 10569-010] which is hereby incorporated by reference), 5% Fetal Calf Serum (FCS, Sigma Cat-No. F4135 (FBS)), 100 Units/ml penicillin/100 μg/ml streptomycin (=Pen/Strep from Invitrogen Cat. No. 15140). For the assay the cells were seeded in 384 well plates, 5000 cells per well, in the same medium. The next day the test compounds were added in various concentrations ranging from 3 μM to 0.00015 μM (10 concentrations, 1:3 diluted).
After 7 days the above viability assay was performed in accordance with the following steps: • Step 1: The cell-plate was equilibrated to room temperature for approximately 30 minutes and than the assay reagent was added. • Step 2: The contents were carefully mixed for 15 minutes to induce cell lysis. • Step 3: After 45 minutes the luminescent signal was measured in Victor 2, (a scanning multiwell spectrophotometer, Wallac). Details:
Medium: Dulbecco's Modified Eagle Medium (D-MEM) (1×) liquid (high glucose) (which includes L-Alanyl-L-Glutamine [a stabilized a form/source of L-Glutamine], 4500 mg/L glucose, and 110 mg/L sodium pyruvate) from Invitrogen Coropration (Invitrogen Catalog Number 31966-021 [now 10569-010] which is hereby incorporated by reference in its entirety), 5% Fetal Calf Serum (FCS, Sigma Cat-No. F4135 [FBS] which is hereby incorporated by reference in its entirety), Pen/Strep contaning 100 Units/ml penicillin/100 μg/ml streptomycin (Invitrogen Catalog Number 15140, which is hereby incorporated by reference in its entirety). —HEK293 (ATCC-No. CRL 1573): 5000 cells in 60 μl per well of 384 well plate (Greiner 781098, white plates) • Incubate 24 h at 37° C., 5% CO2
2. Day: Induction (Substance Testing): […]

Point of comparison: `Fc1ccc2[nH]c(-c3nc(CNc4ccc(CCCCn5ccnn5)cc4)co3)cc2c1` [Example 24, [2-(5-Fluoro-1H-indol-2-yl)-oxazol-4-ylmethyl]-[4-(4-[1,2,3]triazol-1-yl-butyl)-phenyl]-amine], IC50 37 nM. Against it:
- Cc1cc(OCc2coc(-c3cc4ccc(F)cc4[nH]3)n2)ccc1CCCCn1ccnn1 [Example 8, 6-Fluoro-2-{4-[3-methyl-4-(4-[1,2,3]triazol-1-yl-butyl)-phenoxymethyl]-oxazol-2-yl}-1H-indole] — not separable, 0.1 to 50 nM
- Fc1ccc2[nH]c(-c3nc(COc4ccc(COCCn5ccnn5)cc4)co3)cc2c1 [Example 11, 5-Fluoro-2-{4-[4-(2-[1,2,3]triazol-1-yl-ethoxymethyl)-phenoxymethyl]-oxazol-2-yl}-1H-indole] — not separable, 0.1 to 50 nM
- O=S(=O)(Cc1coc(-c2cc3cc(F)ccc3[nH]2)n1)c1ccc(CCCCn2ccnn2)cc1 [Example 21, 5-Fluoro-2-{4-[4-(4-[1,2,3]triazol-1-yl-butyl)-benzenesulfonylmethyl]-oxazol-2-yl}-1H-indole] — higher, 50 to 500 nM
- Clc1ccc2[nH]c(-c3nc(COc4ccc(CCCCn5ccnn5)cc4)co3)cc2c1 [Example 2, 5-Chloro-2-{4-[4-(4-[1,2,3]triazol-1-yl-butyl)-phenoxymethyl]-oxazol-2-yl}-1H-indole] — not separable, 0.1 to 50 nM
- FC(F)(F)Oc1ccc2[nH]c(-c3nc(COc4ccc(CCCCn5ccnn5)cc4)co3)cc2c1 [Example 1, 2-{4-[4-(4-[1,2,3]Triazol-1-yl-butyl)-phenoxymethyl]-oxazol-2-yl}-5-trifluoromethoxy-1H-indole] — not separable, 0.1 to 50 nM
- Clc1ccc2[nH]c(-c3nc(COc4ccc(COCCn5ccnn5)cc4)co3)cc2c1 [Example 10, 5-Chloro-2-{4-[4-(2-[1,2,3]triazol-1-yl-ethoxymethyl)-phenoxymethyl]-oxazol-2-yl}-1H-indole] — not separable, 0.1 to 50 nM
- Clc1ccc2cc(-c3nc(COc4cccc(CCCn5ccnn5)c4)co3)[nH]c2c1 [Example 16, 6-Chloro-2-{4-[3-(3-[1,2,3]triazol-1-yl-propyl)-phenoxymethyl]-oxazol-2-yl}-1H-indole] — not separable, 0.1 to 50 nM
- Fc1ccc2[nH]c(-c3nc(COc4ccc(CCCCn5ccnn5)cc4)co3)cc2c1 [Example 3, 5-Fluoro-2-{4-[4-(4-[1,2,3]triazol-1-yl-butyl)-phenoxymethyl]-oxazol-2-yl}-1H-indole] — 5.6-fold lower, 6.6 nM
- Clc1ccc2[nH]c(-c3nc(COc4ccc(CCCCn5ccnn5)cc4)cs3)cc2c1 [Example 17, 5-Chloro-2-{4-[4-(4-[1,2,3]triazol-1-yl-butyl)-phenoxymethyl]-thiazol-2-yl}-1H-indole] — not separable, 0.1 to 50 nM
- Fc1ccc2[nH]c(-c3nc(CNc4ccc(CCCCn5ccnn5)c(F)c4)co3)cc2c1 [Example 32, [2-(5-Fluoro-1H-indol-2-yl)-oxazol-4-ylmethyl]-[3-fluoro-4-(4-[1,2,3]triazol-1-yl-butyl)-phenyl]-amine] — not separable, 0.1 to 50 nM
- Fc1cc(CCCCn2ccnn2)ccc1NCc1coc(-c2cc3cc(Cl)ccc3[nH]2)n1 [Example 35, [2-(5-Chloro-1H-indol-2-yl)-oxazol-4-ylmethyl]-[2-fluoro-4-(4-[1,2,3]triazol-1-yl-butyl)-phenyl]-amine] — higher, 50 to 500 nM
- Clc1ccc2[nH]c(-c3nc(COc4ccc(COCCn5ccnn5)cc4)cs3)cc2c1 [Example 18, 5-Chloro-2-{4-[4-(2-[1,2,3]triazol-1-yl-ethoxymethyl)-phenoxymethyl]-thiazol-2-yl}-1H-indole] — higher, 50 to 500 nM
- FC(F)(F)Oc1ccc2[nH]c(-c3nc(CNc4ccc(CCCCn5ccnn5)cc4)co3)cc2c1 [Example 22, [4-(4-[1,2,3]Triazol-1-yl-butyl)-phenyl]-[2-(5-trifluoromethoxy-1H-indol-2-yl)-oxazol-4-ylmethyl]-amine] — higher, 50 to 500 nM
- Fc1cc(NCc2coc(-c3cc4cc(Cl)ccc4[nH]3)n2)ccc1CCCCn1ccnn1 [Example 33, [2-(5-Chloro-1H-indol-2-yl)-oxazol-4-ylmethyl]-[3-fluoro-4-(4-[1,2,3]triazol-1-yl-butyl)-phenyl]-amine] — not separable, 0.1 to 50 nM
- Fc1ccc2[nH]c(-c3nc(CNc4ccc(CCCCn5ccnn5)nc4)co3)cc2c1 [Example 38, [2-(5-Fluoro-1H-indol-2-yl)-oxazol-4-ylmethyl]-[6-(4-[1,2,3]triazol-1-yl-butyl)-pyridin-3-yl]-amine] — higher, 50 to 500 nM
- Cc1cc(OCc2coc(-c3cc4cc(F)ccc4[nH]3)n2)ccc1COCCn1ccnn1 [Example 40, 5-Fluoro-2-{4-[3-methyl-4-(2-[1,2,3]triazol-1-yl-ethoxymethyl)-phenoxymethyl]-oxazol-2-yl}-1H-indole] — not separable, 0.1 to 50 nM
- Fc1ccc2cc(-c3nc(COc4ccc(CCCCn5ccnn5)cc4)co3)[nH]c2c1 [Example 4, 6-Fluoro-2-{4-[4-(4-[1,2,3]triazol-1-yl-butyl)-phenoxymethyl]-oxazol-2-yl}-1H-indole] — not separable, 0.1 to 50 nM
- FC(F)(F)Oc1ccc2[nH]c(-c3nc(COc4cccc(CCCn5ccnn5)c4)co3)cc2c1 [Example 14, 2-{4-[3-(3-[1,2,3]Triazol-1-yl-propyl)-phenoxymethyl]-oxazol-2-yl}-5-trifluoromethoxy-1H-indole] — higher, 500 to 1000 nM
- [O-][S+](CCn1ccnn1)Cc1ccc(OCc2coc(-c3cc4cc(Cl)ccc4[nH]3)n2)cc1 (stereo not drawn) [Example 12, 5-Chloro-2-{4-[4-(2-[1,2,3]triazol-1-yl-ethanesulfinylmethyl)-phenoxymethyl]-oxazol-2-yl}-1H-indole] — higher, 500 to 1000 nM
- Cc1cc(NCc2coc(-c3cc4cc(Cl)ccc4[nH]3)n2)ccc1CCCCn1ccnn1 [Example 29, [2-(5-Chloro-1H-indol-2-yl)-oxazol-4-ylmethyl]-[3-methyl-4-(4-[1,2,3]triazol-1-yl-butyl)-phenyl]-amine] — not separable, 0.1 to 50 nM
- Fc1ccc2cc(-c3nc(CNc4ccc(CCCCn5ccnn5)cc4)co3)[nH]c2c1 [Example 23, [2-(6-Fluoro-1H-indol-2-yl)-oxazol-4-ylmethyl]-[4-(4-[1,2,3]triazol-1-yl-butyl)-phenyl]-amine] — not separable, 0.1 to 50 nM
- [O-][S+](CCn1ccnn1)Cc1ccc(OCc2coc(-c3cc4cc(F)ccc4[nH]3)n2)cc1 (stereo not drawn) [Example 13, 5-Fluoro-2-{4-[4-(2-[1,2,3]triazol-1-yl-ethanesulfinylmethyl)-phenoxymethyl]-oxazol-2-yl}-1H-indole] — higher, 50 to 500 nM
- Cc1cc(OCc2coc(-c3cc4cc(F)ccc4[nH]3)n2)ccc1CCCCn1ccnn1 [Example 7, 5-Fluoro-2-{4-[3-methyl-4-(4-[1,2,3]triazol-1-yl-butyl)-phenoxymethyl]-oxazol-2-yl}-1H-indole] — not separable, 0.1 to 50 nM
